# Where two headings read alike, the source gives them in different places.
# Tests used:
# [1] = test system: human immunodeficiency virus-1 (HIV-1); assay: anti-HIV MAGI assay; assay type: cell-based; conditions: Human immunodeficiency virus 1, MAGI, anti-HIV, MAGI assay; read-out: EC50
# Description: We examined the inhibitory activities of DDPs against various species of bacteria (both gram-negative and gram-positive bacteria), fungi and viruses. […] In contrast, preliminary screening of the DDPs for anti-viral agents with hepatitis B virus (HBV), measles virus (MV), Epstein-Barr virus (EBV), herpes simplex virus (HSV) and human immunodeficiency virus-1 (HIV-1) indicated their selective inhibition of HIV.
# MCF-7 cells = assay: cell cytotoxic effects against MCF-7 cells (72 h), A490; assay type: cell-based, human
# [2] = cytotoxicity in Drosophila l(2)mbn cells; assay type: cell-based; conditions: Drosophila, l(2)mbn cells (larval blood cell-derived)
# Description: (§1) We screened the DDPs on the Drosophila assay system for cytotoxicity, inhibitory activity of innate immune signalling and insecticidal activity. The cytotoxicity of the DDPs was evaluated using two cell lines, embryonic macrophage-derived DL1 cells[58]–[60] and larval blood cell-derived l(2)mbn cells, and their IC50 values are listed in Supplementary Table 23.
# l(2)mbn cells = assay: cytotoxicity in Drosophila l(2)mbn cells; assay type: cell-based; conditions: for Luminescence Raw1: replicate 1; for Luminescence Raw2: replicate 2; for IC50: Drosophila melanogaster, cytotoxicity
# Description: as §1
# [3] = cytotoxicity in Drosophila DL1 cells; assay type: cell-based; conditions: Drosophila, DL1 cells (embryonic macrophage-derived), DL1 cells
# Description: as §1
# DL1 cells = assay: cytotoxicity in Drosophila DL1 cells; assay type: cell-based; conditions: DL1 cells; for IC50: Drosophila melanogaster, cytotoxicity
# Description: as §1
# [4] = replicate 1, relative to DMSO 1%, read-out: % viability, viability 1
# [5] = replicate 2, relative to DMSO 1%, read-out: % viability, viability 2
# [6] = average of two replicates, read-out: IC50 Average
# [7] = replicate 1, read-out: IC50 (1)
# [8] = replicate 2, read-out: IC50 (2)
structure (smiles),measurement,setting,value
C=C1CCC2C(C)(CCC=C(C)C)C(O)CCC2(C)C1Cc1c(OC)oc(CO)c(C)c1=O (centres unmarked) [Compound 12],EC50,[1],< 200 nM
same,cytotoxicity against the bulk of MCF-7 cells,MCF-7 cells,dose-dependent cytotoxicity
same,viability at 0.1 µM,"MCF-7 cells; Homo sapiens, MCF7, 72 h, MCF-7, 72 h, 0.1 µM (DMSO 0.002%), read-out: A490 (control =1) ave",72.1%
same,A490 ave,"MCF-7 cells; MCF-7, 72 h, 0.1 µM (DMSO 0.002%), control 1.064",0.767
same,A490 ave,"MCF-7 cells; MCF-7, 72 h, 1 µM (DMSO 0.02%), control 1.104",0.265
same,A490 ave,"MCF-7 cells; MCF-7, 72 h, 10 µM (DMSO 0.2%), control 1.049",0.189
same,viability at 0.04 µM,[2]; [4],139%
same,viability at 0.04 µM,[2]; [5],135%
same,viability at 0.2 µM,[2]; [4],156%
same,viability at 0.2 µM,[2]; [5],139%
same,viability at 1 µM,[2]; [4],112%
same,viability at 1 µM,[2]; [5],136%
same,viability at 4 µM,[2]; [4],16.2%
same,viability at 4 µM,[2]; [5],12.9%
same,viability at 10 µM,[2]; [4],7.07%
same,viability at 10 µM,[2]; [5],6.84%
same,viability at 20 µM,[2]; [4],7.38%
same,viability at 20 µM,[2]; [5],6.31%
same,Luminescence Raw1,l(2)mbn cells; 0.04 µM,3578369
same,Luminescence Raw2,l(2)mbn cells; 0.04 µM,3458604
same,Luminescence Raw1,l(2)mbn cells; 0.2 µM,4007302
same,Luminescence Raw2,l(2)mbn cells; 0.2 µM,3578369
same,Luminescence Raw1,l(2)mbn cells; 1 µM,2865222
same,Luminescence Raw2,l(2)mbn cells; 1 µM,3493234
same,Luminescence Raw1,l(2)mbn cells; 4 µM,415037
same,Luminescence Raw2,l(2)mbn cells; 4 µM,331384
same,Luminescence Raw1,l(2)mbn cells; 10 µM,181387
same,Luminescence Raw2,l(2)mbn cells; 10 µM,175618
same,Luminescence Raw1,l(2)mbn cells; 20 µM,189320
same,Luminescence Raw2,l(2)mbn cells; 20 µM,161917
same,IC50,l(2)mbn cells; [6],3290 nM
same,IC50,"l(2)mbn cells; average±SEM, read-out: IC50",3290 ± 160 nM
same,IC50,l(2)mbn cells; [7],3130 nM
same,IC50,l(2)mbn cells; [8],3450 nM
same,viability at 0.04 µM,[3]; [4],96.8%
same,viability at 0.04 µM,[3]; [5],104%
same,viability at 0.2 µM,[3]; [4],86.4%
same,viability at 0.2 µM,[3]; [5],86.2%
same,viability at 1 µM,[3]; [4],8.66%
same,viability at 1 µM,[3]; [5],7.51%
same,viability at 4 µM,[3]; [4],5.97%
same,viability at 4 µM,[3]; [5],5.72%
same,viability at 10 µM,[3]; [4],6.32%
same,viability at 10 µM,[3]; [5],6.35%
same,viability at 20 µM,[3]; [4],3.83%
same,viability at 20 µM,[3]; [5],4.39%
same,Luminescence Raw1,"DL1 cells; 0.04 µM, replicate 1",1994873
same,Luminescence Raw2,"DL1 cells; 0.04 µM, replicate 2",2143826
same,Luminescence Raw1,"DL1 cells; 0.2 µM, replicate 1",1779203
same,Luminescence Raw2,"DL1 cells; 0.2 µM, replicate 2",1776317
same,Luminescence Raw1,"DL1 cells; 1 µM, replicate 1",178477
same,Luminescence Raw2,"DL1 cells; 1 µM, replicate 2",154679
same,Luminescence Raw1,"DL1 cells; 4 µM, replicate 1",122950
same,Luminescence Raw2,"DL1 cells; 4 µM, replicate 2",117902
same,Luminescence Raw1,"DL1 cells; 10 µM, replicate 1",130161
same,Luminescence Raw2,"DL1 cells; 10 µM, replicate 2",130882
same,Luminescence Raw1,"DL1 cells; 20 µM, replicate 1",78962
same,Luminescence Raw2,"DL1 cells; 20 µM, replicate 2",90500
same,IC50,DL1 cells; [6],342 nM
same,IC50,"DL1 cells; average±SEM, read-out: IC50",340 ± 30 nM
same,IC50,DL1 cells; [7],371 nM
same,IC50,DL1 cells; [8],314 nM

# From PMC7156458, “Synthetic biology based construction of biological activity-related library of fungal decalin-containing diterpenoid pyrones” (Nature Communications, 2020)
